Values of other authors, collected in patent US20110152177A1, “Functional Feed Composition” (priority 2008, published 2011).

How the values were obtained:
Vibrio anguillarium = conditions: lower and higher doses reported to increase mortalities
V. anguillarum = conditions: oral administration of PG at 0.2 and 2 mg/kg diet

peptidoglycan
optimal dose of peptidoglycan in diet (Vibrio anguillarium): 4 g kg^−1 diet
disease resistance (V. anguillarum): enhances the disease resistance
